Assay: Inhibition of recombinant human Inositol 3,4,5,6 tetrakisphosphate 1-kinase using [3H]Ins(3,4,5,6)[…] as substrate

Structure (SMILES)	IC50 [µM]
O=P(O)(O)O[C@H]1[C@H](O)[C@@H](O)[C@H](OP(=O)(O)O)[C@@H](OP(=O)(O)O)[C@H]1O	~4
O=P(O)(O)O[C@H]1[C@H](O)[C@@H](O)[C@H](OP(=O)(O)O)[C@H](OP(=O)(O)O)[C@@H]1O	~9
O=P(O)(O)O[C@@H]1[C@@H](O)[C@H](O)[C@@H](OP(=O)(O)O)[C@@H](OP(=O)(O)O)[C@H]1O	≥ 300

From ChEMBL document CHEMBL1133807, “Regiospecific phosphohydrolases from Dictyostelium as tools for the chemoenzymatic synthesis of the enantiomers D-myo-inositol 1,2,4-trisphosphate and D-myo-inositol 2,3,6-trisphosphate: non-physiological, potential analogues of biologically active D-myo-inositol 1,3,4-trisphosphate” (Bioorg Med Chem Lett, 2001)
